From patent US20050222225A1, “Use of compounds for increasing spermatozoa motility” (APPLIED RESEARCH SYSTEMS ARS HOLDING NV, priority 2002, published 2005)

Key:
[1] = test system: C5a-mediated AKT phosphorylation in Raw 264-7 macrophages; experiment: Cell based ELISA: Akt/PKB phosphorylation in macrophages after stimulation with C5a; conditions: Mus musculus, 50 nM C5a; for inhibition at 10 µM: RAW264.7, compound at 10 μM; for inhibition at 1 µM: RAW264.7, compound at 1 μM
Description: b) Cell Based ELISA to Monitor PI3K Inhibition: Measurement of Akt/PKB phosphorylation in macrophages after stimulation with C5a: Raw 264: Raw 264-7 macrophages (cultured in DMEM-F12 medium containing 10% Fetal Calf serum and antibiotics) are plated at 20'000 cells/well in a 96 MTP 24 h before cell stimulation. Previous to the stimulation with 50 nM of Complement 5a (C5a; which is a well known chemokine which stimulates the used cells) during 5 minutes, Cells are serum starved for 2 h, and pretreated with inhibitors for 20 minutes. After stimulation cells are fixed in 4% formaldehyde for 20 minutes and washed 3 times in PBS containing 1% Triton X-100 (PBS/Triton). Endogenous peroxidase is blocked by a 20 minutes incubation in 0.6% H2O2 and 0.1% Sodium Azide in PBS/Triton and washed 3 times in PBS/Triton. Cells are then blocked by 60 minutes incubation with 10% fetal calf serum in PBS/Triton. Next, phosphorylated Akt/PKB is detected by an overnight incubation at 4° C. with first antibody (anti phospho Serine 473 Akt IHC, Cell Signaling) diluted 800-fold in PBS/Triton, containing 5% bovine serum albumin (BSA). After 3 washes in PBS/Triton, cells are incubated for 60 minutes with a peroxidase conjugated goat-anti-rabbit antibody (1/400 dilution in PBS/Triton, containing 5% BSA), washed 3 times in PBS/Triton, and 2 times in PBS and further incubated in 100 μl of substrate reagent solution (R&D) for 20 minutes. The reaction is stopped by addition of 50 μl of 1 M H2SO4 and absorbance is read at 450 nm. The values indicated reflect the percentage of inhibition of AKT phoshorylation as compared to basal level. Said values show a clear effect of the azolidinone-vinyl fused-benzene compounds on the activation of AKT phosphorylation in macrophages.

spermatozoa = experiment: Sperm cell parameters by computer aided sperm analysis (CASA); type: cell-based, human; conditions: 10 μM; sperm samples from oligo-asthenospermic subjects; vs control sample
Description: In the experiments the following examples are based on, standard methods of in vitro fertilization have been used. With regard to the details of these methods, reference is made to the “WHO manual” (WHO laboratory manual for the examination of human semen and sperm-cervical mucus interactions, 4th edition, Cambridge University Press 1999). In particular, the direct swim-up method can be taken from pp. 104 to 106 of this manual.
b) Effect of Example 1 Compound on Further Sperm Cell Parameters:
These parameters are determined by computer aided sperm analysis (CASA) in sperm samples from different oligo-asthenospermic subjects.

[2] = molecular target: Human recombinant GST-PI3Kγ (Homo sapiens, UniProt P48736); experiment: High Throughput PI3K Lipid Kinase Assay (scintillation proximity assay, neomycin-coated beads); type: biochemical
Human recombinant GST-PI3Kγ, sequence (P48736 whole entry): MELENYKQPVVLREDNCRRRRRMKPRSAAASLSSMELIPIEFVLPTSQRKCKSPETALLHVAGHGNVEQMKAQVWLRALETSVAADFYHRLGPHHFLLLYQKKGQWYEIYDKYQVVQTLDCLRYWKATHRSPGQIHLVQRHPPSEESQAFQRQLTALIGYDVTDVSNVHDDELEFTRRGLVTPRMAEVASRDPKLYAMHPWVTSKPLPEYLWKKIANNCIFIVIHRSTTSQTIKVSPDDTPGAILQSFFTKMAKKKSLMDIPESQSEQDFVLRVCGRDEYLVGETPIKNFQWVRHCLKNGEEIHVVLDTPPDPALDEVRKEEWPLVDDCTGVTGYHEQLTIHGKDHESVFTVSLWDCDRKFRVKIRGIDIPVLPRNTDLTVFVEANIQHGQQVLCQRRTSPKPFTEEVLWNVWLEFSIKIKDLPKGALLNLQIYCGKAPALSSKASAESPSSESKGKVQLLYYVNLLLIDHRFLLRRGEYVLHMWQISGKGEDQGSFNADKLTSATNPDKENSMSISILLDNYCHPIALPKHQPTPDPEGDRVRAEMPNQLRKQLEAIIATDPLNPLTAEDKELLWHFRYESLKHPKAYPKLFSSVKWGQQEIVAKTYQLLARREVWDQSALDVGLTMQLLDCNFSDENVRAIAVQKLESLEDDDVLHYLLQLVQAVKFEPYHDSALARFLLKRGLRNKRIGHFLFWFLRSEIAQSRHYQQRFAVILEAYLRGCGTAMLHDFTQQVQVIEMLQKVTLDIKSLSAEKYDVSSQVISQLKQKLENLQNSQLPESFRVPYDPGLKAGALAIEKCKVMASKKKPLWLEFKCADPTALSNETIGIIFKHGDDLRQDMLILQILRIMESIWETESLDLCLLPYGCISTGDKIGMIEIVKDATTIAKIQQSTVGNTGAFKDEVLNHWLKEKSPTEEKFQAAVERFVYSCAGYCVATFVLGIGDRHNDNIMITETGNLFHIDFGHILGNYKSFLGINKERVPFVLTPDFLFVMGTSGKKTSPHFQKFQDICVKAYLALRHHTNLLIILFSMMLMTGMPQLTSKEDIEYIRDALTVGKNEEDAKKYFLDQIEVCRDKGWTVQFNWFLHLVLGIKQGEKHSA
Description: A. a) High Throughput PI3K Lipid Kinase Assay (Binding Assay):
The assay combines the scintillation proximity assay technology (SPA, Amersham) with the capacity of neomycin (a polycationic antibiotic) to bind phospholipids with high affinity and specificity. The Scintillation Proximity Assay is based on the properties of weakly emitting isotopes (such as ^3H, ^125I, ^33P). Coating SPA beads with neomycin allows the detection of phosphorylated lipid substrates after incubation with recombinant PI3K and radioactive ATP in the same well, by capturing the radioactive phospholipids to the SPA beads through their specific binding to neomycin.
To a 384 wells MTP containing 5 μl of the test compound of formula (I) (solubilized in 6% DMSO; to yield a concentration of 100, 30, 10, 3, 1, 0.3, 0.1, 0.03, 0.01, 0.001 μM of the test compound), the following assay components are added. 1) 5 μl (58 ng) of Human recombinant GST-PI3Kγ (in Hepes 40 mM, pH 7.4, DTT 1 mM and ethylenglycol 5%) 2) 10 μl of lipid micelles and 3) 10 μl of Kinase buffer ([^33P]ATP 45 μM/60 nCi, MgCl2 30 mM, DTT 1 mM, β-Glycerophosphate 1 mM, Na3VO4 100 μM, Na Cholate 0.3%, in Hepes 40 mM, pH 7.4). […] After precipitation of the neomycin-coated PVT SPA beads for 5 minutes at 1500×g, radioactive PtdIns(3)P is quantified by scintillation counting in a Wallac MicroBeta™ plate counter. […]

Row | Structure (SMILES) | inhibition at 10 µM [1] | inhibition at 1 µM [1] | also measured
1 | O=C1NC(=O)/C(=C/c2ccc3c(c2)OCO3)S1 [Example 1, 5-(1,3-benzodioxol-5-ylmethylene)-1,3-thiazolidine-2,4-dione] | ~100% |  | average path velocity (VAP) (spermatozoa): increased in a statistically significant manner; hyper-activated sperm fraction (HA) (spermatozoa): increased in a statistically significant manner; percentage curvilinear velocity (VCL) (spermatozoa): increased in a statistically significant manner; straight-line velocity (VSL) (spermatozoa): increased in a statistically significant manner
2 | CN(C)c1ncnc2ccc(/C=C3\SC(=O)NC3=O)cc12 [Example 17, 5-(4-Dimethylamino-quinazolin-6-ylmethylene)-thiazolidine-2,4-dione] |  | 95% | 
3 | O=C1NC(=O)C(=Cc2ccc3ncnc(N4CCCCC4)c3c2)S1 [Example 19, 5-[(4-piperidin-1-ylquinazolin-6-yl)methylene]-1,3-thiazolidine-2,4-dione] | ~100% | 95% | 
4 | N=C1NC(=O)/C(=C/c2ccc3ncnc(N4CCCCC4)c3c2)S1 [Example 41, 2-Imino-5-(4-piperidine-quinazolin-6-ylmethylene)-thiazolidin-4-one] |  |  | IC50 [2]: < 1 µM
5 | N=C1NC(=O)/C(=C/c2ccc3nccnc3c2)S1 [Example 66, 2-Imino-5-quinoxalin-6-ylmethylene-thiazolidin-4-one] | ~100% |  | 
6 | O=C1NC(=O)/C(=C/c2ccc3occ(/C=C/C(=O)N4CCCCC4)c3c2)S1 [Example 73, 5-[3-(3-Oxo-3-piperidin-1-yl-propenyl)-benzofuran-5-ylmethylene]-thiazolidine-2,4-dione] |  | 95% | 
7 | O=C1NC(=O)/C(=C/c2ccc3nsnc3c2)S1 [Example 107, 5-Benzo[1,2,5]thiadiazol-5-ylmethylene-thiazolidine-2,4-ione] | ~100% |  | IC50 [2]: < 1 µM
